Measurements published in patent US11648289B2, “Antibacterial method” (priority 2016, dated 2023).
Where two headings read alike, the source gives them in different places. No end group written: not given here.

Legend:
B. cercus LMGT 2735 = test system: B. cercus LMGT 2735
Procedure: (§1) Bacterial strains, growth conditions, bacteriocins and antimicrobial assays. All the strains (see below) used in minimal inhibitory concentration (MIC) assays (Varahan et al., 2014, M. Bio. 5:e01726-01714) were grown in BHI medium (Oxoid) at 30° C. without shaking. A collection of E. faecium strains isolated from blood in patients from different European hospitals was received from Department of Medical Microbiology, University Medical Center Utrecht, the Netherlands. […] Synthesized peptides were solubilized to concentrations of 10.0-0.1 mg/ml in 0.1% (vol/vol) trifluoroacetic acid and stored at −20° C. until use. […] Bacteriocin activity was determined by microtiter plate assay as previously described (Holo et al., 1991, J. Bacteriol., 173:3879-3887). The MIC was defined as the minimal bacteriocin concentration that inhibited the growth of the indicator strain by at least 50% (50% of the turbidity of the control culture without bacteriocin) in 200 μl culture. CD Spectroscopy Circular dichroism (CD) spectra were recorded using a Jasco J-810 spectropolarimeter (Jasco International Co) calibrated with D-camphor-10-sulfonate (Icatayama Chemical). All measurements were made using a quartz cuvette (Sterna) with 0.1 cm path length. Samples were scanned five times with a scanning rate of 50 nm/min with a bandwidth of 0.5 nm and response time of 1 s over the wavelength range 190-250 nm. Spectra were recorded at different (30 and 50%) trifluoroethanol (TFE) (Aldridge) concentrations at 25° C. The approximate α-helical content of the protein was estimated from its molar ellipticity at 222 nm (Scholtz et al., 1991, Biopolymers 31:1463-1470). NMR Spectroscopy The experiments were run on a sample containing 1.0 mM EntK1, 50% D3-TFE (99.5% D) (Aldrich), Milli-Q water and 0.2 mM of 4,4-dimethyl-4-silapentane-1-sulfonic acid (DSS) (Larodan). 2D NOESY (Jeener et al., 1979, J. Magn. Reson., 71:4546-4553), 2D TOCSY (Braunschweiler and Ernst, 1983, J. Magn. Reson., 53:521-528), 2D DQCOSY, ^15N-HSQC (Davis et al., 1992, J. Magn. Reson., 98:207-216) and ^13C-HSQC (Hurd, 1991, J. Magn. Reson., 91:648-653) were recorded. The data was acquired on a 600 MHz Bruker Avance II spectrometer with four channels and a 5 mm TCI cryoprobe (Bruker Biospin). NOESY spectra with mixing times between 120 ms and 300 ms were obtained for both samples. TOCSY mixing times of 15-80 ms were used. The experiments were run at 298.15 K. Spectra were processed using the Topspin program (Bruker Biospin). 4,4-dimethyl-4-silapentane-1-sulfonic acid (DSS) was used as a chemical shift standard, and ^15N and ^13C data were referenced using frequency ratios as described in (Wishart et al., 1995, J. Biomol. NMR., 6:135-140). For visualization, assignment and integration of the spectra the computer program CARA was used (Keller, 2004, The Computer Aided Resonance Assignment Tutorial. CANTINA Verlag, Goldau, Switzerland). The spectra were assigned using standard methods. Dihedral angle restraints were obtained from the chemical shift values using the program TALOS-N(Shen and Bax, 2013, J. Biomol. NMR, 56:227-241). Nuclear Overhauser effect (NOE) distance restraints were calculated from the peak volumes in the NOESY spectra with NOESY mixing time of 200 ms. All structure calculations were made using the structure calculation program CYANA 2.1 (Guntert et al., 1997, J. Mol. Biol., 273:283-298; Herrmann et al., 2002, J. Mol. Biol., 319:209-227). The annealing macro in CYANA calculated 100 structures. The 20 structures with the lowest energy were kept and analyzed further. The root-mean-square deviation (RMSD) was calculated and the structures were visualized using MolMol (Koradi et al., 1996, J. Mol. Graph., 14:51-55, 29-32). Generation of bacteriocin resistant mutants of E. faecalis and E. faecium.

B. cereus LMGT 2731 = test system: B. cereus LMGT 2731
Procedure: as §1

B. cereus LMGT 3025 = test system: B. cereus LMGT 3025
Procedure: as §1

E. faecalis LMGT 3386 = test system: E. faecalis LMGT 3386
Procedure: as §1

E. faecalis LMGT 3567 = test system: E. faecalis LMGT 3567
Procedure: as §1

E. faecalis LMGT 3571 = test system: E. faecalis LMGT 3571
Procedure: as §1

E. faecium LMGT 2769 = test system: E. faecium LMGT 2769
Procedure: as §1

E. faecium LMGT 2787 = test system: E. faecium LMGT 2787
Procedure: as §1

E. faecium LMGT 3104 = test system: E. faecium LMGT 3104
Procedure: as §1

E. faecium LMGT 3192 = test system: E. faecium LMGT 3192
Procedure: as §1

[1] = test system: Enterococcus. faecalis LMGT 3199
Procedure: as §1

L. curvatus LMGT 2355 = test system: L. curvatus LMGT 2355
Procedure: as §1

L. lactis LMGT 2084 = test system: L. lactis LMGT 2084
Procedure: as §1

[2] = test system: L. monocytogenes LMGT 2605
Procedure: as §1

[3] = test system: Lactobacillus sakei LMGT 2334
Procedure: as §1

[4] = test system: Lactococcus garvieae LMGT 1546
Procedure: as §1

S. aureus LMGT 3258 = test system: S. aureus LMGT 3258
Procedure: as §1

S. epidermidis LMGT 3026 = test system: S. epidermidis LMGT 3026
Procedure: as §1

S. pneumoniae ds 221 = settings: ds 221, no rseP
Procedure: as §1

[5] = test system: S. pneumoniae ds220 induced; settings: ds220 induced with ComS (2 μM), WT rseP
Procedure: as §1

S. pneumoniae ms3 = settings: ms3, rseP H22>A, induced with ComS (2 μM)
Procedure: as §1

| Sequence | MIC 50 (B. cercus LMGT 2735) | MIC 50 (B. cereus LMGT 2731) | MIC 50 (B. cereus LMGT 3025) | MIC 50 (E. faecalis LMGT 3386) | MIC 50 (E. faecalis LMGT 3567) | MIC 50 (E. faecalis LMGT 3571) | MIC 50 (E. faecium LMGT 2769) | MIC 50 (E. faecium LMGT 2787) | MIC 50 (E. faecium LMGT 3104) | MIC 50 (E. faecium LMGT 3192) | MIC 50 [1] | MIC 50 (L. curvatus LMGT 2355) | MIC 50 (L. lactis LMGT 2084) | MIC 50 [2] | MIC 50 [4] | MIC 50 (S. aureus LMGT 3258) | MIC 50 (S. epidermidis LMGT 3026) | MIC (S. pneumoniae ds 221) | MIC [5] | MIC (S. pneumoniae ms3) | also measured |
| --- | --- | --- | --- | --- | --- | --- | --- | --- | --- | --- | --- | --- | --- | --- | --- | --- | --- | --- | --- | --- | --- |
| MKFKFNPTGTIVKKLTQYEIAWFKNKHGYYPWEIPRC [EntK1] | >5.5 µM | >5.5 µM | >5.5 µM | >5.5 µM | >5.5 µM | >5.5 µM | 0.045 µM | 0.02 µM | 0.01 µM | 0.02 µM | 5.5 µM | 5.5 µM | >5.5 µM | >5.5 µM | 1.37 µM | >5.5 µM | >5.5 µM | >5.5 µM | 0.7 µM | >5.5 µM | MIC 50 ([3]; Lactobacillus sakei LMGT 2334): >5.5 µM |
| MKTILRFVAGYDIASHKKKTGGYPWERGKA [LsbB, reference compound] | >7 µM | >7 µM | >7 µM | >7 µM | >7 µM | >7 µM | >7 µM | >7 µM | >7 µM | >7 µM | >7 µM | >7 µM | >7 µM | >7 µM | >7 µM | >7 µM | >7 µM | >7 µM | >7 µM | >7 µM | MIC 50 ([3]; LMGT 2334): >7 µM |
| MLAKIKAMIKKFPNPYTLAAKLTTYEINWYKQQYGRYPWERPVA [EntEJ97] | >4.7 µM | >4.7 µM | 2.3 µM | 0.295 µM | 0.295 µM | 0.295 µM | 0.145 µM | 0.145 µM | 0.145 µM | 0.295 µM | 0.145 µM | 0.145 µM | 0.295 µM | 1.175 µM | 0.295 µM | >4.7 µM | >4.7 µM | >4.5 µM | 0.018 µM | 0.3 µM | MIC 50 ([3]; Lactobacillus sakei LMGT 2334): >4.7 µM |
